Structures can show the parent of a compound that is named as a salt. Where two headings read alike, the source gives them in different places.
Assays:
primary rat microglia [1] = experiment: Cell toxicity (dead cells, size <150 μm2) in LPS assay
primary rat microglia [2] = experiment: Cell toxicity (dead cells, size <150 μm2) in coated fibrin (cFib) assay;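 further: share of dead cells sized under 150 µm2 at 10 µM in fibrin-stimulated microglia HTS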
[3] = test system: fibrin-induced microglia activation; experiment: Image-based assay of fibrin-induced microglia activation (HTS and dose response); assay type: cell-based, rat; conditions: for inhibition at 10 µM: Rattus norvegicus, Microglia, read-out: Fibrin % inhibition
[4] = test system: LPS-induced microglia activation; experiment: Image-based assay of LPS-induced microglia activation (HTS and dose response); assay type: cell-based, rat; conditions: for inhibition at 10 µM: Rattus norvegicus, Microglia, read-out: LPS % inhibition
[5] = test system: fibrin- and LPS-induced microglia activation; experiment: cells; assay type: cell-based, rat
[6] = primary HTS, 10 μM, LPS assay, dead cells size <150 μm2
[7] = primary HTS, 10 μM, fibrin assay, dead cells size <150 μm2
[8] = primary HTS, 10 μM, fibrin-stimulated primary microglia
[9] = primary HTS, 10 μM, LPS-stimulated primary microglia
[10] = primary microglia HTS, LPS stimulation, decreased size (<150 μm^2) as marker of toxicity
[11] = primary microglia HTS, fibrin stimulation, decreased size (<150 μm^2) as marker of toxicity
[12] = primary microglia HTS, fibrin stimulation, increased cell size (>800 μm^2) as marker of activation
[13] = 48 h, primary microglia HTS, LPS stimulation, increased cell size (>800 μm^2) as marker of activation
[14] = quadrant by fibrin and LPS inhibition in HTS of 1907 compounds

Row | Structure (SMILES) | LPS % cell toxicity (primary rat microglia [1]; [6]) | Fibrin % cell toxicity (primary rat microglia [2]; [7]) | inhibition at 10 µM [3, 8] | inhibition at 10 µM [4, 9] | Quadrant (FIG. 5b) ([5]; primary HTS, 10 μM) | Fibrin % inhibition [3, 8] | LPS % inhibition [4, 9] | LPS % cell toxicity (primary rat microglia [1]; [10]) | Fibrin % cell toxicity (primary rat microglia [2]; [11]) | inhibition at 10 µM [3, 12] | inhibition at 10 µM [4, 13] | Quadrant (FIG. 5b) [5, 14]
1 | CO/N=C(\C(=O)N[C@@H]1C(=O)N2C(C(=O)[O-])=C(C[N+]3(C)CCCC3)CS[C@H]12)c1csc(N)n1 [Cefepime] | 0% | 1% | -26% | 4% | Q4 |  |  |  |  |  |  | 
2 | C=CC1=C(C(=O)O)N2C(=O)[C@@H](NC(=O)/C(=N\OCC(=O)O)c3csc(N)n3)[C@H]2SC1 [Cefixime] | 0% | 1% | 0% | -8% | Q4 |  |  |  |  |  |  | 
3 | CO/N=C(\C(=O)N[C@@H]1C(=O)N2C(C(=O)O)=C(CSc3nnnn3C)CS[C@H]12)c1csc(N)n1 [Cefmenoxime Hydrochloride] | 0% | 0% | -15% | 2% | Q4 |  |  |  |  |  |  | 
4 | CO[C@@]1(NC(=O)CSCC#N)C(=O)N2C(C(=O)O)=C(CSc3nnnn3C)CS[C@@H]21 [Cefmetazole] | 0% | 0% | -50% | 8% | Q4 |  |  |  |  |  |  | 
5 | O=C(O)C1=C(CSc2nnnn2CS(=O)(=O)O)CS[C@@H]2[C@H](NC(=O)[C@H](O)c3ccccc3)C(=O)N12 [Cefonicid Sodium] | 0% | 0% | -11% | 15% | Q4 |  |  |  |  |  |  | 
6 | NCc1ccccc1CC(=O)N[C@@H]1C(=O)N2C(C(=O)O)=C(CSc3nnnn3CC(=O)O)CS[C@H]12 [Ceforanide] | 1% | 1% | -2% | 14% | Q4 |  |  |  |  |  |  | 
7 | CO/N=C(\C(=O)N[C@@H]1C(=O)N2C(C(=O)O)=C(COC(C)=O)CS[C@H]12)c1csc(N)n1 [Cefotaxime Sodium] | 0% | 0% |  |  | Q4 | −1% | 3% |  |  |  |  | 
8 | CO/N=C(\C(=O)N[C@@H]1C(=O)N2C(C(=O)O)=C(COC(C)=O)CS[C@H]12)c1csc(N)n1 [Cefotaxime] | 0% | 1% |  |  | Q4 | −20% | −8% |  |  |  |  | 
9 | CO[C@@]1(NC(=O)C2SC(=C(C(N)=O)C(=O)O)S2)C(=O)N2C(C(=O)O)=C(CSc3nnnn3C)CS[C@@H]21 (stereo partly shown) [Cefotetan] | 0% | 0% | -11% | -5% | Q4 |  |  |  |  |  |  | 
10 | CO[C@@]1(NC(=O)Cc2cccs2)C(=O)N2C(C(=O)O)=C(COC(N)=O)CS[C@@H]21 [Cefoxitin] | 0% | 0% | 6% | 8% | Q4 |  |  |  |  |  |  | 
11 | Cc1cc(O)c(C(=O)N[C@@H](C(=O)N[C@@H]2C(=O)N3C(C(=O)O)=C(CSc4nnnn4C)CS[C@H]23)c2ccc(O)cc2)cn1 [Cefpiramide] | 0% | 1% | 12% | 20% | Q4 |  |  |  |  |  |  | 
12 | COCC1=C(C(=O)OC(C)OC(=O)OC(C)C)N2C(=O)[C@@H](NC(=O)/C(=N\OC)c3csc(N)n3)[C@H]2SC1 (stereo partly shown) [Cefpodoxime Proxetil] | 0% | 0% | -39% | 12% | Q4 |  |  |  |  |  |  | 
13 | NC(=O)c1cc[n+](CC2=C(C(=O)O)N3C(=O)[C@@H](NC(=O)[C@@H](c4ccccc4)S(=O)(=O)[O-])[C@H]3SC2)cc1 [Cefsulodin Sodium] | 0% | 0% | 3% | 14% | Q4 |  |  |  |  |  |  | 
14 | Nc1nc(/C(=C/CC(=O)O)C(=O)N[C@@H]2C(=O)N3C(C(=O)O)=CCS[C@H]23)cs1 [Ceftibuten] | 0% | 1% | -7% | 12% | Q4 |  |  |  |  |  |  | 
15 | CO/N=C(\C(=O)N[C@@H]1C(=O)N2C(C(=O)O)=C(CSC(=O)c3ccco3)CS[C@H]12)c1csc(N)n1 [Ceftiofur Hydrochloride] | 0% | 1% | 4% | 14% | Q4 |  |  |  |  |  |  | 
16 | CO/N=C(\C(=O)N[C@@H]1C(=O)N2C(C(=O)OC(C)OC(C)=O)=C(COC(N)=O)CS[C@H]12)c1ccco1 (stereo partly shown) [Cefuroxime Axetil] | 0% | 1% | 17% | 13% | Q4 |  |  |  |  |  |  | 
17 | CC(=O)OCC1=C(C(=O)[O-])N2C(=O)[C@@H](NC(=O)CCCC(N)C(=O)O)[C@H]2SC1.[Na+] (stereo partly shown) [Cephalosporin C Sodium] | 0% | 1% |  |  | Q4 | −34% | 8% |  |  |  |  | 
18 | COc1ccc2cc1Oc1ccc(cc1)C[C@H]1c3c(cc4c(c3Oc3cc5c(cc3OC)CCN(C)[C@@H]5C2)OCO4)CCN1C [Cepharanthine] |  |  |  |  |  |  |  | 58% | 85% | 114% | 130% | Q2
19 | CC1=C(C(=O)O)N2C(=O)[C@@H](NC(=O)[C@H](N)C3=CCC=CC3)[C@H]2SC1 [Cephradine] | 0% | 0% | -26% | -1% | Q4 |  |  |  |  |  |  | 
20 | CCCCCCCCCCCCCCCC[N+](C)(C)C [Cetrimonium] |  |  |  |  |  |  |  | 12% | 28% | 114% | 132% | Q2
21 | C[C@H](CCC(=O)O)[C@H]1CC[C@H]2[C@@H]3[C@H](O)C[C@@H]4C[C@H](O)CC[C@]4(C)[C@H]3CC[C@]12C [Chenodiol] | 0% | 0% | -32% | 4% | Q4 |  |  |  |  |  |  | 
22 | CN1C(=O)CCS(=O)(=O)C1c1ccc(Cl)cc1 (stereo not shown) [Chlomezanone, Chlormezanone] | 0% | 1% |  |  | Q4 | −52% | 12% |  |  |  |  | 
23 | Cc1ccc(S(=O)(=O)[N-]Cl)cc1.[Na+] [Chloramine-t] | 0% | 1% |  |  | Q4 | 4% | 11% |  |  |  |  | 
24 | CCCCCCCCCCCCCCCC(=O)OC[C@@H](NC(=O)C(Cl)Cl)[C@H](O)c1ccc([N+](=O)[O-])cc1 [Chloramphenicol Palmitate] | 1% | 1% | 15% | 9% | Q4 |  |  |  |  |  |  | 
25 | Nc1ncnc(Nc2ccc(Cl)cc2)n1 [Chlorazanil Hydrochloride] | 0% | 1% | 0% | 3% | Q4 |  |  |  |  |  |  | 
26 | CN1CCN(C(c2ccccc2)c2ccc(Cl)cc2)CC1 (stereo not shown) [Chlorcyclizine] | 0% | 1% | 9% | 6% | Q4 |  |  |  |  |  |  | 

— patent US20210330611A1, “THERAPY FOR NEUROLOGICAL DISEASES/DISORDERS” (priority 2020, published 2021)
